Reference: patent US9386769B2 (HUNAN RESEARCH INSTITUTE OF CHEMICAL INDUSTRY CO., LTD., priority 2011, dated 2016)
Like-named read-outs stand apart in the source and are kept apart here. One block for each compound: values may come before it.

Tests used:
Sclerotinia sclerotiorum = assay: Fungicidal activity against Sclerotinia sclerotiorum, mycelial growth inhibition on PDA plate; type: cell-based; conditions: for inhibition at 0.1562 µg/mL: 0.1562 mg/L; for inhibition at 0.3125 µg/mL: 0.3125 mg/L; for inhibition at 0.625 µg/mL: 0.625 mg/L; for inhibition at 1.255 µg/mL: 1.255 mg/L; for inhibition at 25 µg/mL / activities against Sclerotinia sclerotiorum (growth inhibition rating): 25 mg/L; for inhibition at 25 µg/mL: read-out: activities against Sclerotinia sclerotiorum (growth inhibition rating)
Description: (§1) Bioassay method: Stock solution of every test compound was prepared in an appropriate solvent such as N,N-dimethylformamide (DMF), and then diluted to the required test concentrations with sterile water containing 0.1% Tween 80; Pipetted 3 mL of test solution to 27 mL of potato dextrose agar (PDA) medium at 45° C. and poured into a Petri dish to prepare a plate after shaking thoroughly; 6 mm of diameter of fungi cake from the edge of 7-day-old […] colony was inoculated on the central of the plate, wherein mycelium facing down, and cultured in the culture tank at 28° C. The diameter of fungi spread was calculated 4 days later using the control group tested with the diluent only. Test was run 4 times. Data were subjected to EXCEL statistical software analysis and the growth inhibition of the tested compound was calculated according to the corresponding control, the activity was rated on the basis of percentage of growth inhibition using the following rating system: A, inhibition (%)>90; B, 90≧inhibition (%)>70; C, 70≧inhibition (%)>50; D, inhibition (%)≦50.

Botrytis cinerea = assay: Fungicidal activity against Botrytis cinerea, mycelial growth inhibition on PDA plate; type: cell-based; conditions: for inhibition at 0.1562 µg/mL: 0.1562 mg/L; for inhibition at 0.3125 µg/mL: 0.3125 mg/L; for inhibition at 0.625 µg/mL: 0.625 mg/L; for inhibition at 1.255 µg/mL: 1.255 mg/L; for inhibition at 25 µg/mL / activities against Botrytis cinerea (growth inhibition rating): 25 mg/L; for inhibition at 25 µg/mL: read-out: activities against Botrytis cinerea (growth inhibition rating)
Description: as §1
Fungicidal activities against Botrytis cinerea of compounds represented by the general formula (I) were evaluated with the corresponding method in Example 18, and some of the test results are shown in Table 6 to Table 8.

Alternaria alternata = assay: Fungicidal activity against Alternaria alternata, mycelial growth inhibition on PDA plate; type: cell-based
Description: as §1
Fungicidal activities against Alternaria alternata of compounds represented by the general formula (I) were evaluated with the corresponding method in Example 18, and some of the test results are shown in Table 9 to Table 10.

Aphis fabae = assay: Insecticidal activity against Aphis fabae, dipping of horsebean seedlings; type: in vivo; conditions: 24 h; for mortality at 500 µg/mL: read-out: activities against Aphis fabae (mortality rating)
Description: Bioassay method: Stock solution of every test compound was prepared in an appropriate solvent such as N,N-dimethylformamide, and a small amount of Tween 80 was added as emulsification agent, then diluted to the required test concentrations with distilled water, using the control group tested with distilled water only. More than 20 adults of Aphis fabae were transferred to newly unearthed horsebean seedlings and 24 hr later, horsebean seedlings with Aphis fabae were dipped in the test solution for 5 s, then allowed to dry with filter paper, transplanted to the absorbent sponge and covered with a glass tube, then kept in a room for normal cultivation. Each assay contained three replications, and results were averaged. Mortality was assessed 24 hr after the treatment. The activity was rated to A, B, C or D according to the rating system in Example 22.

[1] = Sclerotinia sclerotiorum, Table 5, read-out: activities against Sclerotinia sclerotiorum (growth inhibition)
[2] = Sclerotinia sclerotiorum, 2.5 mg/L, Table 4, read-out: activities against Sclerotinia sclerotiorum (growth inhibition)
[3] = Sclerotinia sclerotiorum, 2.5 mg/L, Table 5, read-out: activities against Sclerotinia sclerotiorum (growth inhibition)
[4] = Sclerotinia sclerotiorum, 5 mg/L, Table 4, read-out: activities against Sclerotinia sclerotiorum (growth inhibition)
[5] = Sclerotinia sclerotiorum, 5 mg/L, Table 5, read-out: activities against Sclerotinia sclerotiorum (growth inhibition)
[6] = Sclerotinia sclerotiorum, 10 mg/L, Table 4, read-out: activities against Sclerotinia sclerotiorum (growth inhibition)
[7] = Botrytis cinerea, Table 8, read-out: activities against Botrytis cinerea (growth inhibition)
[8] = Botrytis cinerea, 2.5 mg/L, Table 7, read-out: activities against Botrytis cinerea (growth inhibition)
[9] = Botrytis cinerea, 2.5 mg/L, Table 8, read-out: activities against Botrytis cinerea (growth inhibition)
[10] = Botrytis cinerea, 5 mg/L, Table 7, read-out: activities against Botrytis cinerea (growth inhibition)
[11] = Botrytis cinerea, 5 mg/L, Table 8, read-out: activities against Botrytis cinerea (growth inhibition)
[12] = Botrytis cinerea, 10 mg/L, Table 7, read-out: activities against Botrytis cinerea (growth inhibition)
[13] = read-out: activities against Aphis fabae (mortality)

melting point: 71.4 to 74.1 °C
SMILES: CCN(Cc1cnc(Cl)s1)c1nc(Cl)ccc1[N+](=O)[O-]

melting point: 95.8 to 96.8 °C
SMILES: CCN(Cc1cnc(Cl)s1)c1nc(Cl)ccc1Cl

SMILES: CCOc1ccc([N+](=O)[O-])c(N(CC)Cc2cnc(Cl)s2)n1 [Compound 04, 6-ethoxy-N-((2-chlorothiazole-5-yl)methyl)-N-ethyl-3-nitropyridine-2-amine]
inhibition at 0.1562 µg/mL (Sclerotinia sclerotiorum; [1]): 53%
inhibition at 0.3125 µg/mL (Sclerotinia sclerotiorum; [1]): 59%
inhibition at 0.625 µg/mL (Sclerotinia sclerotiorum; [1]): 61%
inhibition at 1.255 µg/mL (Sclerotinia sclerotiorum; [1]): 65%
inhibition at 2.5 µg/mL (Sclerotinia sclerotiorum; [2]): 75%
inhibition at 2.5 µg/mL (Sclerotinia sclerotiorum; [3]): 70%
inhibition at 5 µg/mL (Sclerotinia sclerotiorum; [4]): 90%
inhibition at 5 µg/mL (Sclerotinia sclerotiorum; [5]): 75%
inhibition at 10 µg/mL (Sclerotinia sclerotiorum; [6]): 100%
inhibition at 25 µg/mL (Sclerotinia sclerotiorum; Sclerotinia sclerotiorum): > 90%
inhibition at 0.1562 µg/mL (Botrytis cinerea; [7]): 63%
inhibition at 0.3125 µg/mL (Botrytis cinerea; [7]): 76%
inhibition at 0.625 µg/mL (Botrytis cinerea; [7]): 81%
inhibition at 1.255 µg/mL (Botrytis cinerea; [7]): 82%
inhibition at 2.5 µg/mL (Botrytis cinerea; [8]): 70%
inhibition at 2.5 µg/mL (Botrytis cinerea; [9]): 87%
inhibition at 5 µg/mL (Botrytis cinerea; [10]): 78%
inhibition at 5 µg/mL (Botrytis cinerea; [11]): 90%
inhibition at 10 µg/mL (Botrytis cinerea; [12]): 94%
inhibition at 25 µg/mL (Botrytis cinerea; Botrytis cinerea): > 90%
inhibition at 2.5 µg/mL (Alternaria alternata; Alternaria alternata, 2.5 mg/L, read-out: activities against Alternaria alternata (growth inhibition)): 55%
inhibition at 5 µg/mL (Alternaria alternata; Alternaria alternata, 5 mg/L, read-out: activities against Alternaria alternata (growth inhibition)): 60%
inhibition at 10 µg/mL (Alternaria alternata; Alternaria alternata, 10 mg/L, read-out: activities against Alternaria alternata (growth inhibition)): 70%
inhibition at 25 µg/mL (Alternaria alternata; Alternaria alternata, 25 mg/L, read-out: activities against Alternaria alternata (growth inhibition rating)): 70 to 90%
mortality at 500 µg/mL (Aphis fabae): > 90%
mortality at 6.25 µg/mL (Aphis fabae; [13]): 0%
mortality at 25 µg/mL (Aphis fabae; [13]): 26.7%
mortality at 100 µg/mL (Aphis fabae; [13]): 46.7%

SMILES: CCCOc1ccc([N+](=O)[O-])c(N(CC)Cc2cnc(Cl)s2)n1 [Compound 07]
activities against Sclerotinia sclerotiorum (growth inhibition rating) (Sclerotinia sclerotiorum): B (B, 90≧inhibition (%)>70)
activities against Botrytis cinerea (growth inhibition) (Botrytis cinerea; 2.5 mg/L, Table 7): 44%
activities against Botrytis cinerea (growth inhibition) (Botrytis cinerea; 5 mg/L, Table 7): 52%
activities against Botrytis cinerea (growth inhibition) (Botrytis cinerea; 10 mg/L, Table 7): 68%
activities against Botrytis cinerea (growth inhibition rating) (Botrytis cinerea): B (B, 90≧inhibition (%)>70)
activities against Alternaria alternata (growth inhibition) (Alternaria alternata; 2.5 mg/L): 20%
activities against Alternaria alternata (growth inhibition) (Alternaria alternata; 5 mg/L): 36%
activities against Alternaria alternata (growth inhibition) (Alternaria alternata; 10 mg/L): 45%
activities against Alternaria alternata (growth inhibition rating) (Alternaria alternata; 25 mg/L): C (C, 70≧inhibition (%)>50)

SMILES: CCCN(Cc1cnc(Cl)s1)c1nc(OC)ccc1[N+](=O)[O-] [Compound 08]
activities against Sclerotinia sclerotiorum (growth inhibition rating) (Sclerotinia sclerotiorum): A (A, inhibition (%)>90)
activities against Botrytis cinerea (growth inhibition) (Botrytis cinerea; 2.5 mg/L, Table 7): 68%
activities against Botrytis cinerea (growth inhibition) (Botrytis cinerea; 5 mg/L, Table 7): 70%
activities against Botrytis cinerea (growth inhibition) (Botrytis cinerea; 10 mg/L, Table 7): 70%
activities against Botrytis cinerea (growth inhibition rating) (Botrytis cinerea): A (A, inhibition (%)>90)
activities against Alternaria alternata (growth inhibition) (Alternaria alternata; 2.5 mg/L): 45%
activities against Alternaria alternata (growth inhibition) (Alternaria alternata; 5 mg/L): 48%
activities against Alternaria alternata (growth inhibition) (Alternaria alternata; 10 mg/L): 60%
activities against Alternaria alternata (growth inhibition rating) (Alternaria alternata; 25 mg/L): C (C, 70≧inhibition (%)>50)

SMILES: CCCN(Cc1cnc(Cl)s1)c1nc(OCC)ccc1[N+](=O)[O-] [Compound 09]
activities against Sclerotinia sclerotiorum (growth inhibition rating) (Sclerotinia sclerotiorum): A (A, inhibition (%)>90)
activities against Botrytis cinerea (growth inhibition) (Botrytis cinerea; 2.5 mg/L, Table 7): 52%
activities against Botrytis cinerea (growth inhibition) (Botrytis cinerea; 5 mg/L, Table 7): 65%
activities against Botrytis cinerea (growth inhibition) (Botrytis cinerea; 10 mg/L, Table 7): 65%
activities against Botrytis cinerea (growth inhibition rating) (Botrytis cinerea): A (A, inhibition (%)>90)

SMILES: CCCOc1ccc([N+](=O)[O-])c(N(CCC)Cc2cnc(Cl)s2)n1 [Compound 10]
activities against Sclerotinia sclerotiorum (growth inhibition rating) (Sclerotinia sclerotiorum): B (B, 90≧inhibition (%)>70)
activities against Botrytis cinerea (growth inhibition rating) (Botrytis cinerea): B (B, 90≧inhibition (%)>70)

SMILES: COc1ccc([N+](=O)[O-])c(N(C)Cc2cnc(Cl)s2)n1 [Compound 17]
activities against Alternaria alternata (growth inhibition rating) (Alternaria alternata; 25 mg/L): B (B, 90≧inhibition (%)>70)

SMILES: CCNc1ccc([N+](=O)[O-])c(N(CC)Cc2cnc(Cl)s2)n1 [Compound 24]
activities against Botrytis cinerea (growth inhibition rating) (Botrytis cinerea): B (B, 90≧inhibition (%)>70)

SMILES: CCN(Cc1cnc(Cl)s1)c1nc(N(C)C)ccc1[N+](=O)[O-] [Compound 28, 6-dimethylamino-N-((2-chlorothiazole-5-yl)methyl)-N-ethyl-3-nitropyridine-2-amine]
inhibition at 1.25 µg/mL (Sclerotinia sclerotiorum; Sclerotinia sclerotiorum, 1.25 mg/L, Table 4, read-out: activities against Sclerotinia sclerotiorum (growth inhibition)): 42%
inhibition at 2.5 µg/mL (Sclerotinia sclerotiorum; [2]): 64%
inhibition at 5 µg/mL (Sclerotinia sclerotiorum; [4]): 82%
inhibition at 10 µg/mL (Sclerotinia sclerotiorum; [6]): 90%
inhibition at 25 µg/mL (Sclerotinia sclerotiorum; Sclerotinia sclerotiorum): > 90%
inhibition at 1.25 µg/mL (Botrytis cinerea; Botrytis cinerea, 1.25 mg/L, Table 7, read-out: activities against Botrytis cinerea (growth inhibition)): 79%
inhibition at 2.5 µg/mL (Botrytis cinerea; [8]): 86%
inhibition at 5 µg/mL (Botrytis cinerea; [10]): 91%
inhibition at 10 µg/mL (Botrytis cinerea; [12]): 96%
inhibition at 25 µg/mL (Botrytis cinerea; Botrytis cinerea): > 90%
melting point: 74.6 to 78.4 °C

SMILES: CCOc1ccc([N+](=O)[O-])c(N(Cc2cnc(Cl)s2)C(C)C)n1 [Compound 31]
activities against Botrytis cinerea (growth inhibition rating) (Botrytis cinerea): B (B, 90≧inhibition (%)>70)

SMILES: CCN(Cc1cnc(Br)s1)c1nc(OC)ccc1[N+](=O)[O-] [Compound 33, 6-methoxy-N-((2-bromothiazole-5-yl)methyl)-N-ethyl-3-nitropyridine-2-amine]
inhibition at 2.5 µg/mL (Sclerotinia sclerotiorum; [2]): 91%
inhibition at 5 µg/mL (Sclerotinia sclerotiorum; [4]): 100%
inhibition at 10 µg/mL (Sclerotinia sclerotiorum; [6]): 100%
inhibition at 25 µg/mL (Sclerotinia sclerotiorum; Sclerotinia sclerotiorum): > 90%
inhibition at 25 µg/mL (Botrytis cinerea; Botrytis cinerea): 70 to 90%

SMILES: CCN(Cc1sc(C)nc1C)c1nc(OC)ccc1[N+](=O)[O-] [Compound 44]
activities against Sclerotinia sclerotiorum (growth inhibition) (Sclerotinia sclerotiorum; 2.5 mg/L, Table 4): 70%
activities against Sclerotinia sclerotiorum (growth inhibition) (Sclerotinia sclerotiorum; 5 mg/L, Table 4): 75%
activities against Sclerotinia sclerotiorum (growth inhibition) (Sclerotinia sclerotiorum; 10 mg/L, Table 4): 87%
activities against Sclerotinia sclerotiorum (growth inhibition rating) (Sclerotinia sclerotiorum): A (A, inhibition (%)>90)
activities against Botrytis cinerea (growth inhibition rating) (Botrytis cinerea): A (A, inhibition (%)>90)
activities against Alternaria alternata (growth inhibition rating) (Alternaria alternata; 25 mg/L): B (B, 90≧inhibition (%)>70)

SMILES: CCOc1nc(N(CC)Cc2cnc(Cl)s2)ccc1[N+](=O)[O-] [Compound 45]
mortality at 500 µg/mL (Aphis fabae): 70 to 90%

SMILES: COc1nc(NCc2cnc(Cl)s2)ccc1[N+](=O)[O-] [Compound 47]
activities against Botrytis cinerea (growth inhibition rating) (Botrytis cinerea): C (C, 70≧inhibition (%)>50)

SMILES: COC(=O)NC(=S)Nc1ccccc1NC(=S)NC(=O)OC [Thiophanate-Methyl, reference compound]
inhibition at 0.1562 µg/mL (Sclerotinia sclerotiorum; [1]): 33%
inhibition at 0.3125 µg/mL (Sclerotinia sclerotiorum; [1]): 47%
inhibition at 0.625 µg/mL (Sclerotinia sclerotiorum; [1]): 63%
inhibition at 1.255 µg/mL (Sclerotinia sclerotiorum; [1]): 72%
inhibition at 2.5 µg/mL (Sclerotinia sclerotiorum; [3]): 77%
inhibition at 5 µg/mL (Sclerotinia sclerotiorum; [5]): 85%
inhibition at 0.1562 µg/mL (Botrytis cinerea; [7]): 18%
inhibition at 0.3125 µg/mL (Botrytis cinerea; [7]): 75%
inhibition at 0.625 µg/mL (Botrytis cinerea; [7]): 88%
inhibition at 1.255 µg/mL (Botrytis cinerea; [7]): 93%
inhibition at 2.5 µg/mL (Botrytis cinerea; [9]): 98%
inhibition at 5 µg/mL (Botrytis cinerea; [11]): 100%
